Columns and labels:
high-MAP3K8 PDX model [1] = assay: Lung metastasis detection in PDX by RT-qPCR for human Alu sequences; type: in vivo, mouse; conditions: compared to low-MAP3K8 PDX model
low-MAP3K8 PDX model = assay: Efficacy study in patient-derived xenograft, low-MAP3K8 PDX model; type: in vivo, mouse; conditions: for tumor growth inhibition (TGI): per os 5 times a week for 4 weeks, AZD6244 50 mg/kg, MEK162 25 mg/kg; for tumor growth: treated vs untreated
Method: (§1) Grafting experiments were performed by subcutaneous injection of 2.7×10^6 exponentially growing SKOV3 stable cell lines into each flank of 6-week-old female Swiss nude mice (at least five mice per group). Patient derived xenograft (PDX) models of EOC tumors were established at the Curie Institute with patient consent (Paris, France). For efficacy studies in PDX models, at least 8 mice per group were treated per os 5 times a week for 4 weeks either left untreated (Ctrl) or treated with the following MEK inhibitors AZD6244 at 50 mg/kg, (Selleckchem #S100817) or MEK162 25 mg/kg (Active Biochem #A-1128) both diluted into 2% DMSO, 10% 2-Hydroxypropyl-beta-cyclodextrin, 5% glucose in PBS. Tumor growth was evaluated by measuring two perpendicular diameters of tumors with a caliper twice a week. Individual tumor volumes were calculated as (V)=a×b2/2, with a being the major diameter, and b the minor one. For each tumor, V was reported to the initial volume as relative tumor volume (RTV). Means (and s.e.m) of RTV in the same treatment group were calculated, and growth curves were established as a function of time. The tumor growth inhibition (TGI) was calculated using the following formula: 100−100×([…]). Curie Institute ethical committee approved all experiments.

high-MAP3K8 PDX model [2] = assay: Efficacy study in patient-derived xenograft, high-MAP3K8 PDX model; type: in vivo, mouse; conditions: for tumor growth inhibition (TGI): per os 5 times a week for 4 weeks, AZD6244 50 mg/kg, MEK162 25 mg/kg; for tumor growth: treated vs untreated
Method: as §1

p38MAPK = assay: Western blot of serum-induced p38MAPK phosphorylation in SKOV3 cells; type: cell-based, human; conditions: SKOV3, KI 5 μM or 10 μM 1 h prior to 15 min 10% serum stimulation
Method: (§2) After overnight serum starvation (—FBS), SKOV3 cells and SKOV3 stable cell lines were stimulated with 10% serum for 15 minutes (+FBS). SKOV3 cell line was treated or not with 5 μM or 10 μM MAP3K8 kinase inhibitor as indicated (KI_5 μM or KI_10 μM) for 1 h prior to serum stimulation. After treatment, cells were washed once with cold PBS and scraped on ice with lysis buffer (50 mM Tris-HCl pH 7.5, 1 mM EDTA, 1 mM EGTA, 1% triton X-100, 1 mM Na3VO4, 50mMNaF, 0.27M sucrose, 0.1% β-mercaptoethanol) supplemented with EDTA-free protease inhibitor cocktail tablet (Roche #1836170). For immunoprecipitation (IP), 4×10^6 SKOV3 cells were plated into 10 cm petri dish. […] The protein concentration of the supernatant was determined using the Bio-Rad Dc Protein Assay Kit according to the manufacturer's instructions (Bio-Rad Laboratories). […]
(§3) For western blot analysis, samples were loaded onto homemade or precast 10% polyacrylamide gels (Invitrogen). […] Specific binding of antibodies was detected using appropriate peroxidase-conjugated secondary antibodies (Jackson ImmunoResearch Laboratories #115-035-003 and 115-035-045), and was visualized by enhanced chemiluminescence detection (Western Lightning® Plus-ECL, PerkinElmer). […]

SKOV3 cells [3] = assay: Transwell migration assay; type: cell-based, human; conditions: KI treatment, 5 h
Method: (§4) 12 wells cell culture insert, and 24 wells Transwell BioCoat™ growth factor reduced Matrigel™ invasion chambers (BD Biosciences, […]) were used for migration and invasion assays, respectively. After overnight serum starvation, cells were plated to the upper side of the Transwell device, at least in duplicates, in serum free medium, while the lower well contained regular 10% FBS culture medium in order to create an FBS gradient. The inventors plated 80,000 cells for migration assay and ended the experiment 5 h later. For invasion assay, the inventors plated 50,000 and stopped the experiment 24 h later. At the end of the experiment, the remaining cells in the upper side of the Transwell device were removed. Migrating and invading cells at the bottom side of the Transwell device were fixed and stained with crystal violet for 30 minutes and then counted in the central field (×2.5 objective, Zeiss Axioplan microscope, AxioCamERc 5s).

SKOV3 cells [4] = assay: Growth kinetics of SKOV3 cells (living cells counted by trypan blue exclusion); type: cell-based, human
Method: (§5) The human epithelial ovarian cancer cell line SKOV3 and the SKOV3 stable cell lines were propagated in DMEM (Gibco) supplemented with 10% fetal bovine serum (FBS, PAA), penicillin and streptomycin (Gibco). 1 μg/mL puromycin was added only for SKOV3 stable cell lines. For SKOV3 stable cell lines, 10% serum stimulation was performed after overnight serum starvation for the indicated times. SKOV3 cells were plated and immediately treated or not with 5 μM MAP3K8 kinase inhibitor (KI, Calbiochem #616373) for the indicated times. The number of living cells was measured by trypan blue exclusion using Vi-Cell analyzer (Beckman Coulter). Cell cycle distributions were performed on ethanol-fixed cells, stained with propidium iodide and analyzed by flow cytometry. Flow cytometry data were acquired using CellQuest Pro (Becton Dickinson) software on the FACS LSRII machine (Becton Dickinson) and were analyzed using ModfitLT (Verity) software.

SKOV3 cells [5] = assay: Cell cycle analysis by flow cytometry (propidium iodide); type: cell-based, human; conditions: KI treatment vs untreated control cells
Method: as §5

JNK = assay: Western blot of JNK phosphorylation in SKOV3 cells; type: cell-based, human; conditions: SKOV3, KI 5 μM or 10 μM 1 h prior to 15 min 10% serum stimulation; not significant
Method: as §2, §3

NF-κB = assay: Western blot of serum-induced NF-κB phosphorylation in SKOV3 cells; type: cell-based, human; conditions: SKOV3, KI 5 μM or 10 μM 1 h prior to 15 min 10% serum stimulation
Method: as §2, §3

MEK = assay: Western blot of serum-induced MEK phosphorylation in SKOV3 cells; type: cell-based, human; conditions: SKOV3, KI 5 μM or 10 μM 1 h prior to 15 min 10% serum stimulation
Method: as §2, §3

SKOV3 cells [6] = assay: Transwell BioCoat Matrigel invasion assay; type: cell-based, human; conditions: KI treatment, 24 h
Method: as §4

ERK = assay: Western blot of serum-induced ERK phosphorylation in SKOV3 cells; type: cell-based, human; conditions: SKOV3, KI 5 μM or 10 μM 1 h prior to 15 min 10% serum stimulation
Method: as §2, §3

| Structure (SMILES) | lung metastatic incidence (high-MAP3K8 PDX model [1]) | tumor growth inhibition (TGI) (low-MAP3K8 PDX model) | tumor growth (low-MAP3K8 PDX model) | tumor growth inhibition (TGI) (high-MAP3K8 PDX model [2]) | tumor growth (high-MAP3K8 PDX model [2]) | serum-induced p38MAPK phosphorylation (p38MAPK) | cell migration (SKOV3 cells [3]) | total number of cells (SKOV3 cells [4]; 5 μM KI vs untreated) | cell viability (SKOV3 cells [4]; KI treatment) | cell doubling time (SKOV3 cells [4]; KI treatment vs untreated) | percentage of cells in G1 phase (SKOV3 cells [5]) | JNK phosphorylation (JNK) | serum-induced NF-κB phosphorylation (NF-κB) | serum-induced MEK phosphorylation (MEK) | cell invasion (SKOV3 cells [6]) | serum-induced ERK phosphorylation (ERK) |
| --- | --- | --- | --- | --- | --- | --- | --- | --- | --- | --- | --- | --- | --- | --- | --- | --- |
| Cn1cnc2c(F)c(Nc3ccc(Br)cc3Cl)c(C(=O)NOCCO)cc21 [AZD6244] | significantly reduced | 22% | much less impact | ~60% | markedly reduced tumor growth |  |  |  |  |  |  |  |  |  |  |  |
| N#Cc1cnc2cnc(NCc3cccnc3)cc2c1Nc1ccc(F)c(Cl)c1 [KI] |  |  |  |  |  | not affected | significantly reduced cell migration | reduced the total number of cells | without any impact on cell viability | increase in cell doubling time | significant increase | slight decrease | not affected | significantly reduced | inhibited | significantly reduced |
| Cn1cnc2c(F)c(Nc3ccc(Br)cc3F)c(C(=O)NOCCO)cc21 [MEK162] | significantly reduced | 22% | much less impact | ~60% | markedly reduced tumor growth |  |  |  |  |  |  |  |  |  |  |  |
